# Measurements from US9200171B2, “AZO compound and ink containing the compound” (MITSUBISHI CHEMICAL CORPORATION, priority 2011, dated 2015).
# Tests used:
# [1] = Absorption-maximum wavelength λmax, molar extinction coefficient ε and solution colour in each solvent; assay type: physicochemical
# Method: Each of the compounds 1 to 15 and the comparative example compounds 1 and 2 (1 mg each) was dissolved in each solvent (100 ml) and measurement of absorption spectra was performed on Hitachi spectrophotometer U-4100 using a quartz cell having an optical path length for measurement of 10 mm. From the resulting spectra, absorption-maximum wavelength λmax (nm) and molar extinction coefficient ε ([…]) were determined.
# [2] = Solubility C (saturated concentration at 5° C.) of compound in low-polarity solvent and product εC; assay type: physicochemical; details: for ε · C: C at 5° C.; for solubility at 24 h: organic solvent or mixture, thermodynamic from solid; for solubility at 24 h / Solubility: at 5° C.
# Method: The solubility C of each compound in each solvent was measured as follows.
# Each compound was added to each solvent until a dissolution residue came to remain, and the mixture was subjected to an ultrasonic treatment for 30 minutes at 30° C. After the mixture was allowed to stand at 5° C. for 24 hours, centrifugal filtration was performed through a filter of 0.1 μm using a microcentrifuge (centrifugal force 5200×g). The resulting saturated solution was diluted to an appropriate concentration, and measurement of absorption spectra was performed on Hitachi spectrophotometer U-4100 using a quartz cell having an optical path length for measurement of 10 mm. The concentration of each compound was determined from a relationship between the absorbance at the absorption-maximum wavelength λmax (nm) and the molar extinction coefficient ε (L·mol^−1·cm^−1) previously measured, and the solubility C (mol·L^−1) was calculated. Moreover, the value of the product of the molar extinction coefficient ε (L·mol^−1·cm^−1) and the solubility C (mol·L^−1), εC, was determined.
# Sudan Black B (manufactured by Tokyo Chemical Industry Co., Ltd.) that is a commercially available oil-soluble black dye was added to n-decane (relative permittivity 2.0, solubility in water 1 mg/L or less) until a dissolution residue came to remain, and the mixture was subjected to an ultrasonic treatment for 30 minutes at 30° C. After the mixture was allowed to stand at 5° C. for 24 hours, centrifugal filtration was performed through a filter of 0.1 μm using a microcentrifuge (centrifugal force 5200×g). The resulting saturated n-decane solution was diluted to an appropriate concentration.
# [3] = Isopar M, at absorption-maximum wavelength
# [4] = n-decane, at absorption-maximum wavelength
# [5] = tetradecane, at absorption-maximum wavelength
# [6] = mixed solvent of n-decane/Isopar L (mixing ratio 1/1)
SMILES,Absorption-maximum wavelength ([1]; Isopar M) [nm],Color tone ([1]; Isopar M solution),"ε [1, 3] [L/mol/cm]",Absorption-maximum wavelength ([1]; n-decane) [nm],Color tone ([1]; n-decane solution),"ε [1, 4] [L/mol/cm]",Absorption-maximum wavelength ([1]; tetradecane) [nm],Color tone ([1]; tetradecane solution),"ε [1, 5] [L/mol/cm]",ε · C ([2]; Isopar M),ε · C ([2]; n-decane),solubility at 24 h ([2]; in Isopar M) [mM],solubility at 24 h ([2]; in n-decane) [mM],solubility at 24 h ([2]; in tetradecane) [mM],ε · C ([2]; tetradecane),Solubility ([2]; in n-decane) [mM],Solubility ([2]; in tetradecane) [mM],also measured
"CCCCC(CC)CNc1ccc(NCC(CC)CCCC)c2c1C(=O)c1ccccc1C2=O (centres unmarked) [Comparative example compound 1, reference compound]",651,blue,17000,652,blue,17000,651,blue,17000,1200 cm⁻¹,460 cm⁻¹,71,27,94,1600 cm⁻¹,,,
"C=CCn1c(N=Nc2ccc(N(CCC)CCC)cc2NC(C)=O)nc(C#N)c1C#N [Comparative example compound 2, reference compound]",514,red,39000,512,red,34000,514,red,39000,≤ 10 or cm^−1,≤ 10 or cm^−1,≤ 0.01,≤ 0.01,≤ 0.01,≤ 10 or cm^−1,,,
CCCCc1ccc(N=Nc2cc(C#N)c(/N=N/c3ccc(N(CC(CC)CCCC)CC(CC)CCCC)cc3NC(C)=O)s2)cc1 (centres unmarked) [Compound 1],,,,619,blue,76000,,,,,1800 cm⁻¹,,24,,,,,
CCCCC(CC)CN(CC(CC)CCCC)c1ccc(N=Nc2sc(N=Nc3ccc(C(=O)OCC(C)C)cc3)cc2C#N)c(CC)c1 (centres unmarked) [Compound 2],,,,635,blue,57000,637,blue,54000,,1500 cm⁻¹,,,,1500 cm⁻¹,27,27,
CCCCc1ccc(N=Nc2cc(C#N)c(N=Nc3cc(OC)c(N(CC(CC)CCCC)CC(CC)CCCC)cc3NC(C)=O)s2)cc1 (centres unmarked) [Compound 3],668,blue,72000,667,blue,73000,669,blue,73000,11100 cm⁻¹,9900 cm⁻¹,,,,10600 cm⁻¹,140,150,"Absorption-maximum wavelength ([1]; Isopar L): 667 nm; Color tone ([1]; Isopar L solution): blue; ε ([1]; Isopar L, at absorption-maximum wavelength): 75000 L/mol/cm; Absorption-maximum wavelength [1, 6]: 667 nm; Color tone [1, 6]: blue; ε [1, 6]: 75000 L/mol/cm; ε · C ([2]; Isopar L): 8200 cm⁻¹; Solubility ([2]; in Isopar L): 110 mM; Solubility ([2]; in Isopar M): 150 mM; Solubility ([2]; in mixed solvent of n-decane/Isopar L (mixing ratio 1/1)): 63 mM; ε · C [2, 6]: 4700 cm⁻¹"
CCCCC(CC)CN(CC(CC)CCCC)c1ccc(/N=N/c2sc(N=Nc3ccc(C(=O)OCC(C)C)cc3)cc2C#N)c(C(C)C)c1 (centres unmarked) [Compound 4],,,,638,blue,66000,640,blue,64000,,1800 cm⁻¹,,27,20,1300 cm⁻¹,,,
